In patent US5648359A, “Tumor necrosis factor production inhibitors” (Sumitomo Pharmaceuticals Company, Limited, priority 1993, dated 1997):
Where a name gives a salt, the structure may show the parent alone.

Tested on: TNF production or secretion in mouse peritoneal macrophages
Assay: Inhibitory effect on TNF production or secretion in mouse peritoneal macrophages (30 μM)
Assay type: cell-based, mouse (BALB/c)
Settings: Mus musculus; 30 μM compound; LPS 10 μg/ml, 18 hours; TNF by L929 bioassay
Procedure: Inhibitory effect on TNF production or secretion in mouse peritoneal macrophages (In case drug concentration is 30 μM)
BALB/c mice (5 weeks old, female, Charles River Japan) were intraperitoneally injected with 1 ml of 3% thioglycollate broth. After 4 days, the mice were sacrificed. Peritoneal exudated cells (PECs) were collected from the peritoneal cavity by washing with minimum essential medium (hereinafter abbreviated as MEM, manufactured by Handai Biseibutubyo Kenkyukai, Osaka, Japan) containing 5 U/ml heparin and 1% fetal bovine serum (FBS, manufactured by GIBCO Laboratories Inc.). PECs were washed three times with MEM, suspended with MEM containing 10% FBS. After the viable cells were counted by exclusion of trypan blue dye, the suspension was adjusted at the final concentration of 2×10^6 cells/ml with MEM containing 10% FBS and seeded into a 96-well microplate (Costar, Cambridge, Mass., USA) at 2×10^5 cells/100 μl/well. The PECs were incubated for an hour at 37° C. in a humidified 5% CO2 incubator, and were washed twice with MEM warmed at 37° C. to remove non-adherent cells. Residual adherent cells were used as peritoneal macrophages. After the washing above, 50 μl each/well of MEM containing 10% FBS was added to each well and provided for use in the following experiment.
The powdery compound of the present invention was dissolved in dimethylsulfoxide in a concentration of 30 mM. The solution was then diluted with MEM containing 10% FBS in the final concentration of 30 μM. In the peritoneal macrophages obtained above, 50 μl each of the dilution was added to each well to make the total volume 100 μl. Thereafter 100 μl each of lipopolysaccharide (hereinafter abbreviated as LPS, E. coli 0111B4, manufactured by DIFCO, USA) was added to each well in the final concentration of 10 μg/ml. After the cells were incubated at 37° C. for 18 hours in a humidified 5% CO2 incubator, 25 μl of the supernatant in each well was collected.
The TNF activity in the supernatant collected was determined by bioassay using TNF-sensitive mouse fibroblast cell line L929 cells. That is, 100 μl each of MEM containing 10% FBS was added to each well of a 96-well microplate; using the resulting mixture, 25 μl of the collected supernatant was diluted to 5-fold dilution to final concentrations (concentrations after the following addition of L929 cell suspension) of 10%, 2%, 0.4% and 0.08%.
L929 cells were then suspended (4×10^5 cells/ml) in MEM containing 10% FBS and 1 μg/ml actinomycin D (Sigma Co.) and 100 μl each of the suspension was added to each well of the above microplate at 4×10^4 cells/well and cultured at 37° C. in a humidified 50% CO2. The viable cells were counted by partial modification of the MTT method reported in Monosann et al., T., J. Immunol. Method, 65, 55-63, 1983. The modified MTT method comprises the following steps. One mg/ml of 3-(4,5-dimethylthiazol-2-yl)-2,5-diphenyltetrazolium bromide (hereinafter abbreviated as MTT, manufactured by Sigma Co.) was dissolved in MEM, and 50 μl each of the solution was added to each well of the microplate above. After incubating the microplate for further 6 hours, the supernatant was discarded and 100 μl of 0.004N HCl-isopropyl alcohol and then 10 μl of 0.01% sodium laurylsulfate aqueous solution was added to each well. After shaking the 96-well microplate for a few minutes, the absorbance in each well was measured with a microplate reader (Corona Co.) at an absorption wavelength of 550 nm. The absorbance correlated to the count of the viable L929 cells and represented the TNF activity in the supernatant. The TNF activity was determined in terms of unit (U)/ml from the calibration curve of absorbance for the TNF activity obtained using mouse recombinant TNF α (TNF-M, manufactured by Genzyme Co.) as a standard. The activity of inhibiting TNF production of each compound, was determined by the following equation.
Inhibition of TNF production or secretion (%)=(1-TNF activity in the […]

| Compound | inhibition at 30 µM [%] |
| --- | --- |
| CC(=O)N1C2Cc3cc4c(cc3C1Cc1cc3c(cc12)OCO3)OCO4 [Example 1, 15-acetyl-5,6,12,13-tetrahydrocycloocta[1,2-f:5,6-f']bis[1,3]benzodioxol-5,12-imine] | 95 |
| CCN1C2Cc3cc4c(cc3C1Cc1cc3c(cc12)OCO3)OCO4 [Example 2, 15-ethyl-5,6,12,13-tetrahydrocycloocta[1,2-f:5,6-f']bis[1,3]benzodioxol-5,12-imine hydrochloride] | 72 |
| c1coc(CN2C3Cc4cc5c(cc4C2Cc2cc4c(cc23)OCO4)OCO5)c1 [Example 3, 15-furfuryl-5,6,12,13-tetrahydrocycloocta[1,2-f:5,6-f']bis[1,3]benzodioxol-5,12-imine hydrochloride] | -99 |
| Fc1ccc(CCCN2C3Cc4cc5c(cc4C2Cc2cc4c(cc23)OCO4)OCO5)cc1 [Example 4, 15-[3-(4-fluorophenyl)propyl]-5,6,12,13-tetrahydrocycloocta[1,2-f:5,6-f']bis[1,3]benzodioxol-5,12-imine hydrochloride] | 18 |
| CC(=O)N1C2Cc3cc4c(cc3C1Cc1cc3c(cc12)OCCO3)OCCO4 [Example 5, 17-acetyl-6,7,14,15-tetrahydrocycloocta[1,2-g:5,6-g']bis[1,4]benzodioxan-6,14-imine] | 64 |
| c1c2c(cc3c1OCO3)C1Cc3cc4c(cc3C(C2)N1)OCO4 [Example 13, 5,6,12,13-tetrahydrocycloocta-[1,2-f:5,6-f']bis[1,3]benzodioxol-5,12-imine] | 78 |
| c1c2c(cc3c1OCCO3)C1Cc3cc4c(cc3C(C2)N1)OCCO4 [Example 14] | 63 |
| CCC(=O)N1C2Cc3cc4c(cc3C1Cc1cc3c(cc12)OCO3)OCO4 [Example 17, 5,6,12,13-tetrahydro-15-propionylcycloocta-[1,2-f:5,6-f']bis[1,3]benzodioxol-5,12-imine] | 94 |
| CCCC(=O)N1C2Cc3cc4c(cc3C1Cc1cc3c(cc12)OCO3)OCO4 [Example 18] | 86 |
| COCC(=O)N1C2Cc3cc4c(cc3C1Cc1cc3c(cc12)OCO3)OCO4 [Example 20] | 92 |
| CCOC(=O)C(=O)N1C2Cc3cc4c(cc3C1Cc1cc3c(cc12)OCO3)OCO4 [Example 21, 15-ethoxalyl-5,6,12,13-tetrahydrocycloocta[1,2-f:5,6-f']bis[1,3]benzodioxol-5,12-imine] | 69 |
| CCOC(=O)CC(=O)N1C2Cc3cc4c(cc3C1Cc1cc3c(cc12)OCO3)OCO4 [Example 22, 15-(ethoxycarbonylacetyl)-5,6,12,13-tetrahydrocycloocta[1,2-f:5,6-g']bis[1,3]benzodioxol-5,12-imine] | 77 |
| O=C(c1ccccc1)N1C2Cc3cc4c(cc3C1Cc1cc3c(cc12)OCO3)OCO4 [Example 23] | 39 |
| CCOC(=O)N1C2Cc3cc4c(cc3C1Cc1cc3c(cc12)OCO3)OCO4 [Example 24] | 68 |
| CCCCCOC(=O)N1C2Cc3cc4c(cc3C1Cc1cc3c(cc12)OCO3)OCO4 [Example 25] | 46 |
| O=C(Oc1ccccc1)N1C2Cc3cc4c(cc3C1Cc1cc3c(cc12)OCO3)OCO4 [Example 26] | 27 |
| CN1C2Cc3cc4c(cc3C1Cc1cc3c(cc12)OCO3)OCO4 [Example 27] | 86 |
| CC(C)CN1C2Cc3cc4c(cc3C1Cc1cc3c(cc12)OCO3)OCO4 [Example 31] | 36 |
| C=CCN1C2Cc3cc4c(cc3C1Cc1cc3c(cc12)OCO3)OCO4 [Example 32] | 12 |

| Compound | inhibition at 30 µM [%] |
| --- | --- |
| C=CCCCN1C2Cc3cc4c(cc3C1Cc1cc3c(cc12)OCO3)OCO4 [Example 33] | -5 |
| c1c2c(cc3c1OCO3)C1Cc3cc4c(cc3C(C2)N1CCN1CCCCC1)OCO4 [Example 34] | 56 |
| OCCN1C2Cc3cc4c(cc3C1Cc1cc3c(cc12)OCO3)OCO4 [Example 35] | 65 |
| COC(=O)CCN1C2Cc3cc4c(cc3C1Cc1cc3c(cc12)OCO3)OCO4 [Example 36] | -24 |
| CCOC(=O)CN1C2Cc3cc4c(cc3C1Cc1cc3c(cc12)OCO3)OCO4 [Example 37] | 19 |
| CCOC(=O)CCN1C2Cc3cc4c(cc3C1Cc1cc3c(cc12)OCO3)OCO4 [Example 38] | 6 |
| N#CCCN1C2Cc3cc4c(cc3C1Cc1cc3c(cc12)OCO3)OCO4 [Example 39, 15-(2-cyanoethyl)-5,6,12,13-tetrahydrocycloocta[1,2-f:5,6-f']bis[1,3]benzodioxol-5,12-imine] | -48 |
| O=CN1C2Cc3cc4c(cc3C1Cc1cc3c(cc12)OCO3)OCO4 [Example 40, 15-formyl-5,6,12,13-tetrahydrocycloocta[1,2-f:5,6-f']bis[1,3]benzodioxol-5,12-imine] | 84 |
| COCCN1C2Cc3cc4c(cc3C1Cc1cc3c(cc12)OCO3)OCO4 [Example 42, 5,6,12,13-tetrahydro-15-(2-methoxyethyl)cycloocta[1,2-f:5,6-f']bis[1,3]benzodioxol-5,12-imine] | 11 |
| CNC(=O)N1C2Cc3cc4c(cc3C1Cc1cc3c(cc12)OCO3)OCO4 [Example 44, 5,6,12,13-tetrahydro-15-(N-methylcarbamoyl)cycloocta[1,2-f:5,6-f']bis[1,3]benzodioxol-5,12-imine] | 90 |
| O=C(O)CC(=O)N1C2Cc3cc4c(cc3C1Cc1cc3c(cc12)OCO3)OCO4 [Example 45, 15-(carboxyacetyl)-5,6,12,13-tetrahydrocycloocta[1,2-f:5,6-f']bis[1,3]benzodioxol-5,12-imine] | 15 |
| O=C(O)C(=O)N1C2Cc3cc4c(cc3C1Cc1cc3c(cc12)OCO3)OCO4 [Example 46, 5,6,12,13-tetrahydro-15-oxalocycloocta[1,2-f:5,6-f']bis[1,3]benzodioxol-5,12-imine] | 6 |
| O=C(CCO)N1C2Cc3cc4c(cc3C1Cc1cc3c(cc12)OCO3)OCO4 [Example 47, 5,6,12,13-tetrahydro-15-(3-hydroxypropionyl)cycloocta[1,2-f:5,6-f']bis[1,3]benzodioxol-5,12-imine] | 83 |
| O=C(CO)N1C2Cc3cc4c(cc3C1Cc1cc3c(cc12)OCO3)OCO4 [Example 48, 15-glycoloyl-5,6,12,13-tetrahydrocycloocta[1,2-f:5,6-f']bis-[1,3]benzodioxol-5,12-imine] | 85 |
| NCCN1C2Cc3cc4c(cc3C1Cc1cc3c(cc12)OCO3)OCO4 [Example 50, 15-(2-aminoethyl)-5,6,12,13-tetrahydrocycloocta[1,2-f:5,6-f']bis[1,3]benzodioxol-5,12-imine] | 64 |
| NCCCCN1C2Cc3cc4c(cc3C1Cc1cc3c(cc12)OCO3)OCO4 [Example 51, 15-(4-aminobutyl)-5,6,12,13-tetrahydrocycloocta[1,2-f:5,6-f']bis[1,3]benzodioxol-5,12-imine] | -44 |
| NCC(=O)N1C2Cc3cc4c(cc3C1Cc1cc3c(cc12)OCO3)OCO4 [Example 52, 15-glycyl-5,6,12,13-tetrahydrocycloocta[1,2-f:5,6-f']bis[1,3]benzodioxol-5,12-imine] | 20 |
| NCCC(=O)N1C2Cc3cc4c(cc3C1Cc1cc3c(cc12)OCO3)OCO4 [Example 53, 15-(3-aminopropionyl)-5,6,12,13-tetrahydrocycloocta[1,2-f:5,6-f']bis[1,3]benzodioxol-5,12-imine] | -1 |
